# Results as given in paper PMC11576293, “New series of 4,6-diaryl pyrimidines: facile synthesis and antiproliferative activity as dual EGFR/VEGFR-2 inhibitors” (Frontiers in Chemistry, 2024).
# Tests used:
# Assay in all cases: NCI-60 single-dose screen
# Format in all cases: cell-based
# [1] = tested on: MCF7; conditions: Homo sapiens, single dose 10 µM, '-' = no inhibition, read-out: % Growth Inhibition
# Protocol: (§1) The National Cancer Institute’s Developmental Therapeutic Program (www.dtp.nci.nih.gov) has tested compounds 9–29 (except compounds 21 and 22) against 60 cancer cell lines from nine types (leukemia, lung, colon, CNS, melanoma, ovarian, renal, prostate, and breast cancer) at a single dose (10 μM) ([El-Sherief et al., 2018]). […] The most sensitive cells included leukemia (SR, K-562, and MOLT-4), lung (NCI-H522, […], and EKVX), breast (MCF-7 and T-47D), colon (HCT-15 and HT-29), and ovarian (NCI/ADR-RES).
# (§2) The National Cancer Institute’s Developmental Therapeutic Program (www.dtp.nci.nih.gov) evaluated compounds 9–29 (excluding 21 and 22) against 60 cancer cell lines from nine categories (leukemia, lung, colon, CNS, melanoma, ovarian, renal, prostate, and breast cancer) at a single dose (10 μM) ([El-Sherief et al., 2018]). See Supplementary Material A1 for more details.
# [2] = tested on: OVCAR-5; conditions: Homo sapiens, single dose 10 µM, '-' = no inhibition, read-out: % Growth Inhibition
# Protocol: as §1, §2
# [3] = tested on: SK-OV-3; conditions: Homo sapiens, single dose 10 µM, '-' = no inhibition, read-out: % Growth Inhibition
# Protocol: as §1, §2
# [4] = tested on: A549/ATCC; conditions: Homo sapiens, single dose 10 µM, '-' = no inhibition, read-out: % Growth Inhibition
# Protocol: as §1, §2
# [5] = tested on: CAKI-1; conditions: Homo sapiens, single dose 10 µM, '-' = no inhibition, read-out: % Growth Inhibition
# Protocol: as §1, §2
# [6] = tested on: MALME-3M; conditions: Homo sapiens, single dose 10 µM, '-' = no inhibition, read-out: % Growth Inhibition
# Protocol: as §1, §2
# [7] = tested on: SN12C; conditions: Homo sapiens, single dose 10 µM, '-' = no inhibition, read-out: % Growth Inhibition
# Protocol: as §1, §2
# [8] = tested on: TK-10; conditions: Homo sapiens, single dose 10 µM, '-' = no inhibition, read-out: % Growth Inhibition
# Protocol: as §1, §2
# [9] = tested on: 786-0; conditions: Homo sapiens, single dose 10 µM, '-' = no inhibition, read-out: % Growth Inhibition
# Protocol: as §1, §2
# [10] = tested on: T-47D; conditions: Homo sapiens, T47D, single dose 10 µM, '-' = no inhibition, read-out: % Growth Inhibition
# Protocol: as §1, §2
# [11] = tested on: SF-268; conditions: Homo sapiens, single dose 10 µM, '-' = no inhibition, read-out: % Growth Inhibition
# Protocol: as §1, §2
# [12] = tested on: U251; conditions: Homo sapiens, U-251, single dose 10 µM, '-' = no inhibition, read-out: % Growth Inhibition
# Protocol: as §1, §2
# [13] = tested on: HCT-116; conditions: Homo sapiens, single dose 10 µM, '-' = no inhibition, read-out: % Growth Inhibition
# Protocol: as §1, §2
# [14] = tested on: MDA-MB-468; conditions: Homo sapiens, single dose 10 µM, '-' = no inhibition, read-out: % Growth Inhibition
# Protocol: as §1, §2
# [15] = tested on: A498; conditions: Homo sapiens, single dose 10 µM, '-' = no inhibition, read-out: % Growth Inhibition
# Protocol: as §1, §2
# [16] = tested on: NCI-H460; conditions: Homo sapiens, single dose 10 µM, '-' = no inhibition, read-out: % Growth Inhibition
# Protocol: as §1, §2
# [17] = tested on: SF-539; conditions: Homo sapiens, single dose 10 µM, '-' = no inhibition, read-out: % Growth Inhibition
# Protocol: as §1, §2
# [18] = tested on: OVCAR-3; conditions: Homo sapiens, single dose 10 µM, '-' = no inhibition, read-out: % Growth Inhibition
# Protocol: as §1, §2
# [19] = tested on: PC-3; conditions: Homo sapiens, single dose 10 µM, '-' = no inhibition, read-out: % Growth Inhibition
# Protocol: as §1, §2
# [20] = tested on: KM12; conditions: Homo sapiens, single dose 10 µM, '-' = no inhibition, read-out: % Growth Inhibition
# Protocol: as §1, §2
# [21] = tested on: EKVX; conditions: Homo sapiens, single dose 10 µM, '-' = no inhibition, read-out: % Growth Inhibition
# Protocol: as §1, §2
# [22] = tested on: MOLT-4; conditions: Homo sapiens, single dose 10 µM, '-' = no inhibition, read-out: % Growth Inhibition
# Protocol: as §1, §2
# [23] = tested on: HT29; conditions: Homo sapiens, HT-29, single dose 10 µM, '-' = no inhibition, read-out: % Growth Inhibition
# Protocol: as §1, §2
# [24] = tested on: SW-620; conditions: Homo sapiens, single dose 10 µM, '-' = no inhibition, read-out: % Growth Inhibition
# Protocol: as §1, §2
# [25] = tested on: CCRF-CEM; conditions: Homo sapiens, single dose 10 µM, '-' = no inhibition, read-out: % Growth Inhibition
# Protocol: as §1, §2
# [26] = tested on: UACC-62; conditions: Homo sapiens, single dose 10 µM, '-' = no inhibition, read-out: % Growth Inhibition
# Protocol: as §1, §2
# [27] = tested on: SNB-75; conditions: Homo sapiens, single dose 10 µM, '-' = no inhibition, read-out: % Growth Inhibition
# Protocol: as §1, §2
# [28] = tested on: RPMI-8226; conditions: Homo sapiens, single dose 10 µM, '-' = no inhibition, read-out: % Growth Inhibition
# Protocol: as §1, §2
# [29] = tested on: SK-MEL-5; conditions: Homo sapiens, single dose 10 µM, '-' = no inhibition, read-out: % Growth Inhibition
# Protocol: as §1, §2
# [30] = tested on: HCC-2998; conditions: Homo sapiens, single dose 10 µM, '-' = no inhibition, read-out: % Growth Inhibition
# Protocol: as §1, §2
# [31] = tested on: HOP-62; conditions: Homo sapiens, single dose 10 µM, '-' = no inhibition, read-out: % Growth Inhibition
# Protocol: as §1, §2
# [32] = tested on: HCT-15; conditions: Homo sapiens, single dose 10 µM, '-' = no inhibition, read-out: % Growth Inhibition
# Protocol: as §1, §2
# [33] = tested on: SK-MEL-28; conditions: Homo sapiens, single dose 10 µM, '-' = no inhibition, read-out: % Growth Inhibition
# Protocol: as §1, §2
# [34] = tested on: UO-31; conditions: Homo sapiens, single dose 10 µM, '-' = no inhibition, read-out: % Growth Inhibition
# Protocol: as §1, §2
# [35] = tested on: IGROV1; conditions: Homo sapiens, IGROV-1, single dose 10 µM, '-' = no inhibition, read-out: % Growth Inhibition
# Protocol: as §1, §2
# [36] = tested on: ACHN 1; conditions: Homo sapiens, single dose 10 µM, '-' = no inhibition, read-out: % Growth Inhibition
# Protocol: as §1, §2
# [37] = tested on: HS 578T; conditions: Homo sapiens, single dose 10 µM, '-' = no inhibition, read-out: % Growth Inhibition
# Protocol: as §1, §2
# [38] = tested on: SNB-19; conditions: Homo sapiens, single dose 10 µM, '-' = no inhibition, read-out: % Growth Inhibition
# Protocol: as §1, §2
# [39] = tested on: UACC-257; conditions: Homo sapiens, single dose 10 µM, '-' = no inhibition, read-out: % Growth Inhibition
# Protocol: as §1, §2
# [40] = tested on: NCI-H522; conditions: Homo sapiens, single dose 10 µM, '-' = no inhibition, read-out: % Growth Inhibition
# Protocol: as §1, §2
# [41] = tested on: MDA-MB-435; conditions: Homo sapiens, single dose 10 µM, '-' = no inhibition, read-out: % Growth Inhibition
# Protocol: as §1, §2
# [42] = tested on: M14; conditions: Homo sapiens, single dose 10 µM, '-' = no inhibition, read-out: % Growth Inhibition
# Protocol: as §1, §2
# [43] = tested on: HOP-92; conditions: Homo sapiens, single dose 10 µM, '-' = no inhibition, read-out: % Growth Inhibition
# Protocol: as §1, §2
# [44] = tested on: SK-MEL-2; conditions: Homo sapiens, single dose 10 µM, '-' = no inhibition, read-out: % Growth Inhibition
# Protocol: as §1, §2
# [45] = tested on: NCI/ADR-RES; conditions: Homo sapiens, single dose 10 µM, '-' = no inhibition, read-out: % Growth Inhibition
# Protocol: as §1, §2
# [46] = tested on: BT-549; conditions: Homo sapiens, single dose 10 µM, '-' = no inhibition, read-out: % Growth Inhibition
# Protocol: as §1, §2
# [47] = tested on: SF-295; conditions: Homo sapiens, single dose 10 µM, '-' = no inhibition, read-out: % Growth Inhibition
# Protocol: as §1, §2
# [48] = tested on: RXF 393; conditions: Homo sapiens, single dose 10 µM, '-' = no inhibition, read-out: % Growth Inhibition
# Protocol: as §1, §2
smiles,measurement,setting,value
"CCCSc1nc(-c2ccc(Cl)cc2)cc(-c2ccc(OC)cc2)n1 [Compound 11, 4-(4-Chlorophenyl)-6-(4-methoxyphenyl)-2-(propylthio)pyrimidine]",inhibition at 10 µM,[1],4.02%
same,inhibition at 10 µM,[2],< 0%
same,inhibition at 10 µM,[3],< 0%
same,inhibition at 10 µM,[4],6.74%
same,inhibition at 10 µM,[5],7.98%
same,inhibition at 10 µM,[6],< 0%
same,inhibition at 10 µM,[7],6.25%
same,inhibition at 10 µM,[8],< 0%
same,inhibition at 10 µM,[9],0.11%
same,inhibition at 10 µM,[10],8.26%
same,inhibition at 10 µM,[11],< 0%
same,inhibition at 10 µM,[12],5.99%
same,inhibition at 10 µM,[13],< 0%
same,inhibition at 10 µM,[14],7.92%
same,inhibition at 10 µM,[15],2.73%
same,inhibition at 10 µM,[16],< 0%
same,inhibition at 10 µM,[17],< 0%
same,inhibition at 10 µM,[18],< 0%
same,inhibition at 10 µM,[19],< 0%
same,inhibition at 10 µM,[20],1.24%
same,inhibition at 10 µM,[21],6.92%
same,inhibition at 10 µM,[22],2.06%
same,inhibition at 10 µM,[23],10.7%
same,inhibition at 10 µM,[24],0.11%
same,inhibition at 10 µM,[25],1.71%
same,inhibition at 10 µM,[26],18.1%
same,inhibition at 10 µM,[27],< 0%
same,inhibition at 10 µM,[28],< 0%
same,inhibition at 10 µM,[29],3.98%
same,inhibition at 10 µM,[30],< 0%
same,inhibition at 10 µM,[31],< 0%
same,inhibition at 10 µM,[32],7.25%
same,inhibition at 10 µM,[33],< 0%
same,inhibition at 10 µM,[34],9.15%
same,inhibition at 10 µM,[35],< 0%
same,inhibition at 10 µM,[36],< 0%
same,inhibition at 10 µM,[37],< 0%
same,inhibition at 10 µM,[38],1.03%
same,inhibition at 10 µM,[39],< 0%
same,inhibition at 10 µM,[40],9.17%
same,inhibition at 10 µM,[41],1.63%
same,inhibition at 10 µM,[42],< 0%
same,inhibition at 10 µM,[43],< 0%
same,inhibition at 10 µM,[44],7.18%
same,inhibition at 10 µM,[45],< 0%
same,inhibition at 10 µM,[46],< 0%
same,inhibition at 10 µM,[47],6.79%
same,inhibition at 10 µM,[48],< 0%
"CCSc1nc(-c2ccc(OC)cc2)cc(-c2cccc(OC)c2)n1 [Compound 17, 2-(Ethylthio)-6-(3-methoxyphenyl)-4-(4-methoxyphenyl)pyrimidine]",inhibition at 10 µM,[1],11%
same,inhibition at 10 µM,[2],< 0%
same,inhibition at 10 µM,[4],0.61%
same,inhibition at 10 µM,[5],9.72%
same,inhibition at 10 µM,[6],< 0%
same,inhibition at 10 µM,[7],< 0%
same,inhibition at 10 µM,[8],< 0%
same,inhibition at 10 µM,[9],< 0%
same,inhibition at 10 µM,[10],10.2%
same,inhibition at 10 µM,[11],< 0%
same,inhibition at 10 µM,[12],< 0%
same,inhibition at 10 µM,[13],5.86%
same,inhibition at 10 µM,[14],< 0%
same,inhibition at 10 µM,[15],< 0%
same,inhibition at 10 µM,[16],< 0%
same,inhibition at 10 µM,[17],< 0%
same,inhibition at 10 µM,[18],< 0%
same,inhibition at 10 µM,[19],< 0%
same,inhibition at 10 µM,[20],2.23%
same,inhibition at 10 µM,[21],1.03%
same,inhibition at 10 µM,[22],4.56%
same,inhibition at 10 µM,[23],< 0%
same,inhibition at 10 µM,[24],1.81%
same,inhibition at 10 µM,[25],2.15%
same,inhibition at 10 µM,[26],< 0%
same,inhibition at 10 µM,[27],< 0%
same,inhibition at 10 µM,[28],3.83%
same,inhibition at 10 µM,[29],6.31%
same,inhibition at 10 µM,[30],< 0%
same,inhibition at 10 µM,[31],< 0%
same,inhibition at 10 µM,[32],2.62%
same,inhibition at 10 µM,[33],< 0%
same,inhibition at 10 µM,[34],13.7%
same,inhibition at 10 µM,[35],< 0%
same,inhibition at 10 µM,[36],< 0%
same,inhibition at 10 µM,[37],< 0%
same,inhibition at 10 µM,[38],< 0%
same,inhibition at 10 µM,[39],< 0%
same,inhibition at 10 µM,[40],5.39%
same,inhibition at 10 µM,[41],2.52%
same,inhibition at 10 µM,[42],< 0%
same,inhibition at 10 µM,[43],< 0%
same,inhibition at 10 µM,[44],5.15%
same,inhibition at 10 µM,[45],< 0%
same,inhibition at 10 µM,[46],< 0%
same,inhibition at 10 µM,[47],< 0%
same,inhibition at 10 µM,[48],< 0%
